Consider seven molecules from patent EP1891105B1, “OXYNTOMODULIN ANALOGUES AND THEIR EFFECTS ON FEEDING BEHAVIOUR” (Imperial Innovations Limited, priority 2005, dated 2012).

Entries after “also recorded” stand apart in the source; their conditions may differ. Non-standard residues stand in square brackets, D forms with d. No end group written: not given here. *: point of attachment. Lauroyl = CCCCCCCCCCCC(=O)*

Assay [1] can be described thus: Food intake of fasted mice after injection of peptide. The class given is in vivo, C57BL/6 mice. As for the experimental part: Animals: All animal procedures were approved by the British Home Office Animals (Scientific Procedures) Act 1986 (Project License number 70/5516). Male C57BL/6 mice and male Wistar rats were maintained in individual cages under controlled temperature (21-23 °C) with ad libitum access to standard chow (RM1 diet, SDS Ltd, Witham, Essex, UK) and to water. The light cycle was 14 hours light and 10 hours dark with 'dawn' at 07:00, lights full on at 07:30, 'dusk' at 21:00 with lights off at 21:30. These times were fixed in the animal facility.
All animals were handled almost daily for on average nine days prior to the first study. During the acclimatization period, each animal received two saline injections at least two days apart in order to further acclimatize to the procedure on the study days.
Intra-peritoneal (IP) injections: IP injections were administered to mice via a 0.5 ml syringe with a 29-gauge needle (maximum injection volume 0.1 ml). Maximum volume administered IP was 0.1 ml.
Study protocol: C57BL/6 mice (20-35 g) were injected with the peptide under investigation following a 20-hour fast Wistar rats were injected following a 24-hour fast. A pre-weighed quantity of chow was presented immediately after injection. The remaining food was measured at regular time intervals (e.g. 1, 2, 3,4, 6, 8, 24 and 48 hours following injection) and food intake calculated.

The conditions of assay [2]: humans; 1.8 mg sc three times daily for 28 days; cited from earlier work.
The conditions of assay [3]: rats, cited from earlier work.
For assay [4] the following is noted: humans; intravenously infused; cited from earlier work.
The mark [5] stands for this setting: Example 1, 2700 nmol/kg, intervals 0-32 h after injection, vs saline and oxm.

In the case of “DHis2-Ser2-Asp3-oxm(ex15-23)(ex27-33)-Lys33-Ala38,39-Glu40,41-Lys42-Lauroyl ([dH]SDGTFTSDYSKYLEEEAVRLFIQWLKNGGPSKNNIAAAEEK(Lauroyl)) [23/104]”, the food intake entry in assay [1] (Example 57, 6 or 20 nmol/kg) is listed as “markedly decreased cumulative food intake in comparison to the saline control”.

As for “oxm(xx15-18): human oxm with 4 amino acids at positions 15-18 replaced by substitute sequence (HSQGTFTSDYSKYLEEEAAQDFVQWLMNTKRNRNNIA)”, the food intake result in assay [1] (setting [5]) was “increased and prolonged inhibition of food intake compared to both saline and oxm”.

“Oxyntomodulin (HSQGTFTSDYSKYLDSRRAQDFVQWLMNTKRNRNNIA) [oxm, 37 amino acid peptide member of the glucagon superfamily]”: the body weight entry in assay [2] is listed as “significant reduction of body weight”. The weight gain result in assay [3] (chronic central administration) is on record as “reduced weight gain”. Further, the “refeeding after a fast” value in assay [3] (intracerebroventricular and injection into paraventricular and arcuate nuclei) is “inhibits refeeding after a fast”. In addition, the “body weight gain and adiposity” value in assay [3] (twice daily peripheral injections) was “reduced body weight gain and adiposity”. Further, the appetite entry in assay [4] is given as “effective appetite suppressant”. Moreover, the food intake result is given as “reduced food intake as expected” in assay [1] (Example 5, 2700nmol/kg, 0-4 h, vs oxm and saline); “did not quite reach statistical significance” in assay [1] (Example 7, 1000 nmol/kg, 0-24 h). Also, the “Multiples of food inhibition Factor” value in assay [1] (Example 9, food intake during the first hour after injection, activity relative to oxm (1400 nmol/kg)) was 1.

Regarding “D-His1,Ala2,Lys33,Ala38,Ala39,Lys40-lauroyl-oxm(ex15-23)(ex27-33) ([dH]AQGTFTSDYSKYLEEEAVRLFIQWLKNGGPSKNNIAAAK(Lauroyl))”, in assay [1] (Example 54, 10 nmol/kg), the food intake entry was “exception”.

Regarding “oxm(xx15-21): human oxm with residues 15-21 replaced by corresponding exendin-4 residues (HSQGTFTSDYSKYLEEEAVRLFVQWLMNTKRNRNNIA)”, the food intake entry in assay [1] (setting [5]) is “greater and more prolonged appetite suppressant effect”.

B1: oxm(xx27-33): oxm with residues 27 to 33 replaced by the sequence Lys Asn Gly Gly Pro Ser Ser (peptide)
chain 1: HSQGTFTSDYSKYLDSRRAQDFVQWLKNGGPSSNNIA
chain 2: B1 chain 1
Take B1: the food intake result in assay [1] (Example 3, 2700 nmol/kg, 0-24 h, vs oxm and saline) is “increased and prolonged inhibition of food intake compared to both saline and oxm”.

B2: oxm(xx15-24): human oxm with residues 15-24 replaced by corresponding exendin-4 residues (peptide)
chain 1: HSQGTFTSDYSKYLEEEAVRLFIEWLMNTKRNRNNIA
chain 2: B2 chain 1
As to B2, the food intake entry in assay [1] (setting [5]) is “greater and more prolonged appetite suppressant effect; also recorded: more potent effect on feeding than oxm”; in assay [1] (Example 2, 300 nmol/kg, 0-24 h, vs exendin 4 and saline), “reduces food intake only slightly less than exendin over the first 8 hours post-injection”; in assay [1] (Example 27, 100 nmol/kg) it was “the most effective”.
